Entries after “also recorded” stand apart in the source; their conditions may differ. Where two headings read alike, the source gives them in different places.
Tests used:
rC100sub and rNOTCH1sub = assay: Cell-free γ-secretase assay, rC100sub and rNOTCH1sub (Appendix Fig S1); assay type: biochemical
Procedure: Although not suited for detailed dose–response studies due to challenges in precise quantification of the cleavage products, we nevertheless conducted several studies to examine how different GSIs affect cleavage in the cell‐free assay. […] We also evaluated a previously reported Notch‐sparing GSI, Avagacestat (BMS‐708163) (Gillman et al, 2010; Albright et al, 2013) using this assay (Appendix Fig S1).
CHAPSO‐solubilized CHO cell membrane was prepared as described in previous report. 25 μg/ml of each substrate was incubated with the membrane (100 μg/ml total protein) in sodium citrate buffer (150 mM, pH 6.5, Roche Complete protease inhibitor added) for 2 h at 37°C. […] The reaction was terminated by placing tubes on ice until immunoprecipitation.
Immunoprecipitation and mass spectrometry of Aβ and Aβ‐like peptides in cell‐free assay or conditioned media were performed as previously described (Ran et al, 2014). Briefly, the peptides were immunoprecipitated using anti‐Aβ Ab5 antibody bound to sheep anti‐mouse IgG magnetic Dynabeads (Life Technologies) and eluted with 0.1% trifluoroacetic acid (TFA) in water. COOH‐terminal fragments (CTFs) were immunoprecipitated with anti‐FLAG M2 magnetic beads (Sigma). […] Samples were analyzed using a Bruker Microflex LRF‐MALDI‐TOF mass spectrometer.

SPP = system: SPP; design: method as in Weihofen et al, 2003; details: concentration up to 100 μM; ref Weihofen et al, 2003; cited from earlier work
[1] = system: cNOTCH1‐4sub and cAPPC100sub; assay: Substrate accumulation in H4 cells stably expressing cNOTCH1-4sub and cAPPC100sub (Western blot); assay type: cell-based, human; details: for substrate accumulation (Western blot), other GSIs tried beside DAPT: authors' response, concentration not given
Procedure: In order to enable us to more definitively characterize the effects of various GSIs on different substrates, we generated H4 cells stably expressing cNOTCH1‐4sub and cAPPC100sub (Fig 4A). Chimeric substrates were detected by WB using anti‐FLAG antibody (Fig 4B). Multiple CTFs are detectable as well as potential dimers for all substrates. Multiple NTF are also detectable using anti‐Aβ 6E10 antibody (Appendix Fig S2) for cNOTCH1, 3, and 4 substrates.
(§1) H4 cells were cultured in Opti‐mem media (Thermo‐Fisher) supplemented with Hyclone 6% fetal bovine serum (GE, Logan, Utah, USA) and 1% penicillin/streptomycin (Life Technologies, Grand Island, NY, USA). pCDNA3.1 plasmids containing the substrate cDNAs were transfected into H4 cells using FuGENE HD reagent (Madison, WI, USA). Stable cell lines were established using G418 selection. […] Cells and conditioned media were used for WB, IP, and ELISA.
Sandwich ELISAs used for Aβ detection were performed as previously described (Murphy et al, 1999; Ran et al, 2014). Briefly, Aβ and Aβ‐like peptides in conditioned media were captured with Ab5 antibody and detected with horseradish peroxidase labeled mAb 4G8 (Biolegend). Synthetic Aβ1‐40 was used as standard. All ELISAs were developed with TMB substrate (KPL, Gaithersburg, Maryland, USA). Bis‐Tris precast gels (Biorad, Hercules, CA, USA) were used for all SDS–PAGE. Monoclonal anti‐FLAG M2 antibody (Sigma) and Aβ1‐16 antibody 6E10 (Covance) were used for Western blotting at 1:1,000 dilution. Anti‐CD74 In‐1 antibody (BD Bioscience, San Jose, CA, USA) was used for A20 cell lysate Western blotting at dilution of 1:1,000. MDA‐MB‐231 cell extracts were prepared by lysing cells in RIPA buffer containing protease and phosphatase inhibitors. The lysates were kept on ice for 30 min and vortexed every 10 min, and then centrifuged at 4°C for 10 min at 1,000 g. The supernatants were collected, and protein concentrations were determined by Bradford Assay. […]

full‐length APP = assay: Cell-based γ-secretase cleavage assay, full-length APP stably overexpressing cells (Aβ ELISA)
Procedure: (§2) We next tested all GSIs on cAPPC100sub and full‐length APP stably overexpressing cells. […] The low‐dose potentiation of γ‐secretase cleavage was further mechanistically probed using in vitro assays with recombinant substrates and IP‐MS.
as §1
(§3) Sandwich ELISAs used for Aβ detection were performed as previously described (Murphy et al, 1999; Ran et al, 2014). Briefly, Aβ and Aβ‐like peptides in conditioned media were captured with Ab5 antibody and detected with horseradish peroxidase labeled mAb 4G8 (Biolegend). Synthetic Aβ1‐40 was used as standard. All ELISAs were developed with TMB substrate (KPL, Gaithersburg, Maryland, USA). Bis‐Tris precast gels (Biorad, Hercules, CA, USA) were used for all SDS–PAGE. Monoclonal anti‐FLAG M2 antibody (Sigma) and Aβ1‐16 antibody 6E10 (Covance) were used for Western blotting at 1:1,000 dilution. Anti‐CD74 In‐1 antibody (BD Bioscience, San Jose, CA, USA) was used for A20 cell lysate Western blotting at dilution of 1:1,000. MDA‐MB‐231 cell extracts were prepared by lysing cells in RIPA buffer containing protease and phosphatase inhibitors. The lysates were kept on ice for 30 min and vortexed every 10 min, and then centrifuged at 4°C for 10 min at 1,000 g. The supernatants were collected, and protein concentrations were determined by Bradford Assay. Pan‐NOTCH1 antibody (C‐20) (Santa Cruz Biotechnology) and cleaved NOTCH1 (Val1744) antibody ([…]) were used at 1:500 and 1:100 dilution in the test of endogenous NOTCH1 inhibition with β‐actin expression used as loading control. β‐actin antibody was used at 1:1,000 dilution (Sigma). Band intensities normalized for actin using densitometry analysis with ImageJ Software (NIH, USA).

APP = assay: Endogenous APP-CTF accumulation in MDA-MB-231 cells (Western blot); assay type: cell-based
Procedure: (§4) To extend the study to a more physiological system, we assessed endogenous NOTCH1 cleavage inhibition using the triple‐negative breast cancer line MDA‐MB‐231 (Fig 6A). Full‐length blots are shown in source data for Fig 6. NOTCH1 cleavage was detected by Western blotting using the Cell Signaling neo‐epitope NICD antibody. […] The inhibition of endogenous APP in MDA‐MB‐231 cells was also tested by detecting accumulation of APP COOH‐terminal fragments (APP‐CTFs). […] Figure 6D summarized the APP‐CTF band intensities normalized for DMSO group. The original blots are available in source data for Fig 6.
Values are mean ± SD of three tests. • APP‐CTF Western blot of MDA‐MB‐231 cells treated with indicated concentration of GSIs for 16 h. • Band intensities of APP‐CTF with 0.1 μM GSIs were normalized for DMSO control group. Values are mean ± SD of three tests. Data information: Original blots are provided as source data. All band intensity data are derived from three independent experiments and are analyzed by one‐way ANOVA using GraphPad Prism6 software. All experiments were repeated three times.Source data are available online for this figure.

cNOTCH2sub = cNOTCH2sub (Homo sapiens, UniProt P49768); assay: Cell-based γ-secretase cleavage assay, cNOTCH2sub in H4 cells (Aβ-like peptide ELISA); details: rank among the six GSIs, number in brackets
Procedure: (§5) Using these cell‐based γ‐secretase cleavage assays, we systematically investigated the substrate inhibition profile of BMS‐906024, MK‐0752, PF‐308414, RO4929097, Semagacestat, and DAPT. We treated H4 cells stably expressing cNOTCH1‐4sub with 4 pM to 10 μM of GSIs (Fig 5A and Table 2) and measured the Aβ‐like peptide secreted into the media.
(§6) For the cell‐based assay, all substrates contain a human NOTCH4 signal peptide sequence ([…]), amyloid β peptide (Aβ1–25/K16A) epitope tag followed by the juxtamembrane region (JMD) of the given substrate and a FLAG tag ([…]) at the COOH‐terminal. K16A mutant was created to decrease potential α‐secretase cleavage. The cDNAs were generated by gene synthesis conducted by Genscript. A schematic representation of the substrates is provided in Fig 4A, and sequences of the cDNAs and the proteins are provided in Appendix Fig S6. For clarity, these substrates are referred to as cell‐based assay substrates (e.g., NOTCH1 is cNOTCH1sub). Substrate cDNAs were cloned into pCDNA3.1 (Invitrogen, Carlsbad, CA, USA) for expression in H4 cells (ATCC, Manassas, VA).
as §1, §3

cNOTCH1‐4sub = assay: Average of cell-based IC50s on cNOTCH1-4sub in H4 cells; design: species or system human; details: read-out: Average IC50s of each GSI on cNOTCH1‐4sub
Procedure: as §5, §6, §1, §3

cNOTCH1sub = assay: Cell-based γ-secretase cleavage assay, cNOTCH1sub in H4 cells (Aβ-like peptide ELISA); design: species or system human; details: Aβ-like peptide in media, GSI overnight
Procedure: as §5, §6, §1, §3

Aβ40 = system: Aβ40; design: method as in ref Appendix Table S1 (Gavai et al, 2015; Dovey et al, 2001; Cook et al, 2010; Krop et al, 2012; Wei et al, 2010; Luistro et al, 2009; Mitani et al, 2012); details: ref Appendix Table S1 (Gavai et al, 2015; Dovey et al, 2001; Cook et al, 2010; Krop et al, 2012; Wei et al, 2010; Luistro et al, 2009; Mitani et al, 2012); read-out: Reported IC50s Aβ40; cited from earlier work
cNOTCH4sub = assay: Cell-based γ-secretase cleavage assay, cNOTCH4sub in H4 cells (Aβ-like peptide ELISA); design: species or system human; details: Aβ-like peptide in media, GSI overnight
Procedure: as §5, §6, §1, §3

cAPPC100sub = assay: Cell-based γ-secretase cleavage assay, cAPPC100sub stably overexpressing cells (Aβ ELISA)
Source text: as §2, §6, §1, §3

NOTCH1 = assay: Endogenous NOTCH1 cleavage inhibition in MDA-MB-231 cells (NICD Western blot after EDTA activation); assay type: cell-based; details: MDA-MB-231, 100 nM to 12.5 μM, 1 h pretreatment then 5 mM EDTA 5 min
Procedure: as §4
Short‐term endogenous NOTCH1 cleavage inhibition was tested in the triple‐negative breast cancer cell lines MDA‐MB‐231 (ATCC, Manassas, VA). Cells were plated in 60 mm dishes and maintained as monolayer cultures in DMEM medium supplemented with 10% FBS, 1% penicillin/streptomycin, 1% L‐glutamine (Life Technologies), and incubated at 37°C in a humidified 5% CO2 incubator. After the cells reached ~75% confluency, cultures were pretreated with GSIs for 1 h in DMEM at 37°C in a 5% CO2 incubator. GSIs were tested at concentrations of 0, 0.1, 0.5, 2.5, and 12.5 μM. Then, EDTA (5 mM, Life Technologies) was added to the cell cultures to induce Notch activation for 5 min. Following incubation, cell extracts were prepared by lysing cells in RIPA buffer (Santa Cruz Biotechnology) containing protease and phosphatase inhibitors. Western blotting was performed using Cleaved NOTCH1 (Val1744) antibody (Cell Signaling) with β‐actin (Santa Cruz Biotechnology) as loading control. Band intensities were normalized for actin using ImageJ Software (NIH, USA).
as §3

cNOTCH3sub = assay: Cell-based γ-secretase cleavage assay, cNOTCH3sub in H4 cells (Aβ-like peptide ELISA); design: species or system human
Procedure: as §5, §6, §1, §3

γ‐secretase = γ‐secretase (Homo sapiens, UniProt P49768); details: quoted in parentheses in the authors' response, no assay and reference not given; cited from earlier work
[2] = system: cNOTCH1‐4sub and cAPPC100sub; assay: Secretion of Aβ-like peptides from cNOTCH1-4sub and cAPPC100sub H4 cells (ELISA, IP-MS); assay type: cell-based, human
Procedure: The secreted Aβ‐like peptides can be detected using Aβ ELISA method.
as §1
Immunoprecipitation and mass spectrometry of Aβ and Aβ‐like peptides in cell‐free assay or conditioned media were performed as previously described (Ran et al, 2014). Briefly, the peptides were immunoprecipitated using anti‐Aβ Ab5 antibody bound to sheep anti‐mouse IgG magnetic Dynabeads (Life Technologies) and eluted with 0.1% trifluoroacetic acid (TFA) in water. […] Samples were analyzed using a Bruker Microflex LRF‐MALDI‐TOF mass spectrometer.
Sandwich ELISAs used for Aβ detection were performed as previously described (Murphy et al, 1999; Ran et al, 2014). Briefly, Aβ and Aβ‐like peptides in conditioned media were captured with Ab5 antibody and detected with horseradish peroxidase labeled mAb 4G8 (Biolegend). […] The supernatants were collected, and protein concentrations were determined by Bradford Assay. […]

NC(=O)[C@@H](CCC(F)(F)F)N(Cc1ccc(-c2ncon2)cc1F)S(=O)(=O)c1ccc(Cl)cc1 [Avagacestat]
inhibition of APP versus Notch cleavage (rC100sub and rNOTCH1sub): inhibit APP and Notch cleavage equivalently

C[C@H](NC(=O)Cc1cc(F)cc(F)c1)C(=O)N[C@H](C(=O)OC(C)(C)C)c1ccccc1 [DAPT]
effect on SPP activity (SPP): no effect
substrate accumulation (Western blot) ([1]; 1 μM treatment, H4 cells): did not result in significant substrate accumulation except for cAPPC100sub
low-dose potentiation of cleavage, APP (full‐length APP; full-length APP overexpressing cells): low‐dose potentiation of cleavage was observed
IC50 (full‐length APP; full-length APP stably overexpressing cells, Aβ ELISA): 32.7 nM
APP CTF level / accumulation at 100 nM (APP; MDA-MB-231 (231 cells), 100 nM, triplicate): hard to see; also recorded: did not significantly increase CTF level
concentration from which APP‐CTF process is inhibited (APP; MDA-MB-231, 16 h): ≥ 500 nM
rank order of inhibition of cNOTCH2sub (cNOTCH2sub): [6]
IC50 (cNOTCH1‐4sub): 191 nM
IC50 (cNOTCH1sub): 4.9 nM
IC50 (Aβ40): 20 nM
IC50 (cNOTCH4sub): 51.5 nM
IC50 (cAPPC100sub; stably overexpressing cells, Aβ ELISA, read-out: IC50 cC100sub): 360 nM
IC50 (cAPPC100sub; value in parentheses, read-out: IC50 cC100sub, from curves excluding the Aβ level > 120%): 212 nM
NICD levels (NOTCH1): did not suppress NICD levels to baseline levels at any concentrations
effect on cNOTCH3sub cleavage at low concentrations (cNOTCH3sub): potentiate
IC50 (cNOTCH3sub; Aβ-like peptide in media, GSI overnight, read-out: IC50 cNOTCH3sub): 624 nM
IC50 (cNOTCH3sub; value in parentheses, read-out: IC50 cNOTCH3sub, from curves excluding the Aβ level > 120%): 265 nM

CC(C)C[C@H](NC(=O)[C@H](Cc1ccccc1)C[C@@H](O)[C@H](Cc1ccccc1)NC(=O)OC(C)(C)C)C(=O)N[C@@H](Cc1ccccc1)C(N)=O [L685458]
substrate accumulation (Western blot), other GSIs tried beside DAPT [1]: only cAPPC100 show some accumulation
IC50 (γ‐secretase): 17 nM

C[C@H](NC(=O)[C@@H](O)c1cc(F)cc(F)c1)C(=O)N[C@@H]1C(=O)N(C)c2ccccc2-c2ccccc21 [LY411575, N2‐[(2S)‐2‐(3,5‐difluorophenyl)‐2‐hydroxyethanoyl]‐N1‐[(7S)‐5‐methyl‐6‐oxo ‐6,7‐dihydro‐5H‐dibenzo[b,d]azepin‐7‐yl]‐L‐alaninamide]
substrate accumulation (Western blot), other GSIs tried beside DAPT [1]: only cAPPC100 show some accumulation
Aβ-like peptides in culture media (IP-MS) ([2]; 1 μM): abolished all production
secretion of Aβ-like peptides (ELISA) ([2]; 1 μM applied to cell cultures): almost completely inhibited
